Tested on: HIV-1NL4-3
Assay: Anti-HIV-1 assay in TZM-GFP cells
Details: for Inhibition% at 20 μM: 20 μM compound; for Inhibition% at 2 μM: 2 μM compound; for fold higher antiviral potency than PF74: EC50 compared with PF74

Row | Substance | Inhibition% at 20 μM | Inhibition% at 2 μM [%] | fold higher antiviral potency than PF74
1 | 2-(2-(2,4-Dioxo-1,3-diazaspiro[4.5]decan-3-yl)acetamido)-N,3-diphenylpropanamide [Compound 45] | −/0% | – | –
2 | 2-(2-(2,4-Dioxo-1,3-diazaspiro[4.5]decan-3-yl)acetamido)-N-(3-fluorophenyl)-N-methyl-3-phenylpropanamide [Compound 49] | 98% | 24 | –
3 | 2-(2-(2,4-Dioxo-1,3-diazaspiro[4.5]decan-3-yl)acetamido)-N-ethyl-N,3-diphenylpropanamide [Compound 53] | −/92% | – | –
4 | 2-(2-(2,4-Dioxo-1,3-diazaspiro[4.5]decan-3-yl)acetamido)-N-methyl-N,3-diphenylpropanamide [Compound 44] | −/89% | – | –
5 | 2-(2-(2,5-Dioxo-3’,4’-dihydro-2’H-spiro[imidazolidine-4,1’-naphthalen]-1-yl)acetamido)-N,3-diphenylpropanamide [Compound 55] | −/22% | – | –
6 | 2-(2-(2,5-Dioxo-3’,4’-dihydro-2’H-spiro[imidazolidine-4,1’-naphthalen]-1-yl)acetamido)-N-(4-methoxyphenyl)-N-methyl-3-phenylpropanamide [Compound 56] | −/20% | – | –
7 | 2-(2-(2,5-Dioxo-3’,4’-dihydro-2’H-spiro[imidazolidine-4,1’-naphthalen]-1-yl)acetamido)-N-methyl-3-phenyl-N-(p-tolyl)propanamide [Compound 57] | −/41% | – | –
8 | 2-(2-(2,5-Dioxo-3’,4’-dihydro-2’H-spiro[imidazolidine-4,1’-naphthalen]-1-yl)acetamido)-N-methyl-N,3-diphenylpropanamide [Compound 54] | −/32% | – | –
9 | (2S)-N-(3-Fluorophenyl)-N-methyl-2-(2-(7-methyl-2-oxoindolin-3-yl)acetamido)-3-phenylpropanamide [Compound 19] | 93% | 0 | –
10 | (2S)-N-(4-Chlorophenyl)-N-methyl-2-(2-(7-methyl-2-oxoindolin-3-yl)acetamido)-3-phenylpropanamide [Compound 17] | 96% | 17 | –
11 | (S)-2-(2-(1,3-Dimethyl-2,6-dioxo-1,2,3,6-tetrahydro-7H-purin-7-yl)acetamido)-N-(3-fluorophenyl)-N-methyl-3-phenylpropanamide [Compound 40] | 67% | 1 | –
12 | (S)-2-(2-(1,3-Dimethyl-2,6-dioxo-1,2,3,6-tetrahydro-7H-purin-7-yl)acetamido)-N-(4-fluorophenyl)-N-methyl-3-phenylpropanamide [Compound 39] | 85% | 14 | –
13 | (S)-2-(2-(1,3-Dimethyl-2,6-dioxo-1,2,3,6-tetrahydro-7H-purin-7-yl)acetamido)-N-ethyl-N,3-diphenylpropanamide [Compound 43] | 94% | 0 | –
14 | (S)-2-(2-(1,3-Dimethyl-2,6-dioxo-1,2,3,6-tetrahydro-7H-purin-7-yl)acetamido)-N-methyl-3-phenyl-N-(p-tolyl)propanamide [Compound 38] | 98% | 18 | –
15 | (S)-2-(2-(5-Hydroxy-1H-indol-3-yl)acetamido)-N-methyl-3-phenyl-N-(p-tolyl)propanamide [Compound 9] | – | – | up to 20 fold
16 | (S)-2-(2-(5-Hydroxy-1H-indol-3-yl)acetamido)-N-methyl-N,3-diphenylpropanamide [Compound 8] | – | – | up to 20 fold
17 | (S)-N-(3-Chlorophenyl)-2-(2-(1,3-dimethyl-2,6-dioxo-1,2,3,6-tetrahydro-7H-purin-7-yl)acetamido)-N-methyl-3-phenylpropanamide [Compound 42] | 71% | 0 | –

Reference: article PMC7530112 (European journal of medicinal chemistry, 2020)
